Experimental data published in patent EP0508725A1, “Novel process for the preparation of 8a-aza-8a-homoerythromycin cyclic iminoethers” (MERCK & CO. INC., priority 1991, dated 1992).

Assays:
Experiment in all cases: MIC, liquid turbidimetric microtiter method in brain heart infusion broth
Type in all cases: cell-based
[1] = test system: Enterococcus faecalis MB 5407
Text: (§1) The antibacterial activities of compound (VII) against a panel of aerobic Gram positive and negative bacteria is shown in the following Table. The assay employs a liquid turbidimetric microtiter method for the determination of the minimum inhibitory concentration (MIC) in brain heart infusion broth. […] The MIC is generally not an absolute value but rather a concentration ranged that falls within a two-fold dilution limit. Generally twelve two-fold dilutions of the test compound are employed with the initial concentration set at 128 mcg/ml.

[2] = test system: Enterococcus faecium MB 5416
Text: as §1

Escherichia coli MB 2884 = test system: Escherichia coli MB 2884
Text: as §1

Escherichia coli MB 4926 = test system: Escherichia coli MB 4926
Text: as §1

[3] = test system: Klebsiella pneumoniae MB 4005
Text: as §1

[4] = test system: Pseudomonas stutzeri MB 1231
Text: as §1

[5] = test system: Staphylococcus aureus MB 2865
Text: as §1

[6] = test system: Staphylococcus epidermidis MB 5414
Text: as §1

[7] = test system: Staphylococcus haemolyticus MB 5412
Text: as §1

[8] = test system: Steptococcus viridans CL 2943
Text: as §1

[9] = test system: Streptococcus agalactiae CL 1343
Text: as §1

[10] = test system: Streptococcus pneumoniae CL 2883
Text: as §1

[11] = test system: Streptococcus pyogenes MB 2874
Text: as §1

[12] = test system: Streptococcus pyogenes MB 5406
Text: as §1

[13] = test system: Yersinia enterocoltica CL 1598
Text: as §1

CC[C@H]1OC(=O)[C@H](C)[C@@H](O[C@H]2C[C@@](C)(OC)[C@@H](O)[C@H](C)O2)[C@H](C)[C@@H](O[C@@H]2O[C@H](C)C[C@H](N(C)C)[C@H]2O)[C@](C)(O)C[C@@H](C)N=C2O[C@@]1(C)[C@H](O)[C@H]2C [Compound (VII), 9-Deoxo-12-deoxy-9,12-epoxy-8a,9-didehydro-8a-aza-8a-homoerythromycin A]
MIC Values [1]: 32 mcg/m
MIC Values [2]: 8 mcg/m
MIC Values (Escherichia coli MB 2884): 128 mcg/m
MIC Values (Escherichia coli MB 4926): 8 mcg/m
MIC Values [3]: >128 mcg/m
MIC Values [4]: 0.5 mcg/m
MIC Values [5]: 16 mcg/m
MIC Values [6]: 32 mcg/m
MIC Values [7]: 8 mcg/m
MIC Values [8]: 16 mcg/m
MIC Values [9]: 1 mcg/m
MIC Values [10]: 0.5 mcg/m
MIC Values [11]: 1 mcg/m
MIC Values [12]: 128 mcg/m
MIC Values [13]: 128 mcg/m
